Results: PubChem BioAssay (NCI)
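These data come from cells grown in 96-well plates and exposed to compound for 48 hours at five concentrations. GI50: concentration for 50% inhibition of growth. TGI: total growth inhibition.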

Columns and labels:
Assay in all cases: inhibition of tumour cell growth, NCI panel, 48 h
HCT-116 colon = system: HCT-116 colon
HCC-2998 colon = system: HCC-2998 colon
RPMI-8226 leukemia = system: RPMI-8226 leukemia
MCF7 breast = system: MCF7 breast
SW-620 colon = system: SW-620 colon
SK-MEL-2 melanoma = system: SK-MEL-2 melanoma
NCI/ADR-RES ovarian = system: NCI/ADR-RES ovarian
HL-60(TB) leukemia = system: HL-60(TB) leukemia
COLO 205 colon = system: COLO 205 colon
M14 melanoma = system: M14 melanoma

| SMILES | GI50 (HCT-116 colon) | TGI (HCT-116 colon) | GI50 (HCC-2998 colon) | TGI (HCC-2998 colon) | GI50 (RPMI-8226 leukemia) | TGI (RPMI-8226 leukemia) | GI50 (MCF7 breast) | TGI (MCF7 breast) | GI50 (SW-620 colon) | TGI (SW-620 colon) | GI50 (SK-MEL-2 melanoma) | TGI (SK-MEL-2 melanoma) | GI50 (NCI/ADR-RES ovarian) | TGI (NCI/ADR-RES ovarian) | GI50 (HL-60(TB) leukemia) | TGI (HL-60(TB) leukemia) | GI50 (COLO 205 colon) | TGI (COLO 205 colon) | GI50 (M14 melanoma) | TGI (M14 melanoma) |
| --- | --- | --- | --- | --- | --- | --- | --- | --- | --- | --- | --- | --- | --- | --- | --- | --- | --- | --- | --- | --- |
| CCCCCCc1cc2cc(-c3csc(/C=C/c4ccccc4)n3)c(=O)oc2cc1O | 3.39 µM | 12.1 µM | 6.41 µM | 29.3 µM | 4.84 µM | 19.7 µM | 4.62 µM | 44 µM | 5.6 µM | 20.7 µM | 18.1 µM | 41.1 µM | 4.53 µM | 17.7 µM | 4.79 µM | 30.4 µM | > 100 µM | > 100 µM |  |  |
| O=C(c1cccs1)c1nc2cc(Cl)ccc2[n+]([O-])c1C(F)(F)F | 23.2 µM | > 100 µM | 87.4 µM | > 100 µM | 64 µM | > 100 µM | 52.2 µM | > 100 µM | > 100 µM | > 100 µM | 51.2 µM | > 100 µM | > 100 µM | > 100 µM | > 100 µM | > 100 µM | > 100 µM | > 100 µM | > 100 µM | > 100 µM |
| COc1ccc(C2CC(c3ccc4ccccc4c3)=NN2c2nc(O)c(C3=c4cc(OC)ccc4=NC3=O)s2)cc1 (stereo unspecified) | 0.243 µM | 0.66 µM | 0.0762 µM | 0.265 µM | 0.27 µM | 3.93 µM | 0.0315 µM | 0.75 µM | 0.0249 µM | 0.0658 µM | 0.178 µM | 0.497 µM | 1.89 µM | > 100 µM | > 57.9 µM | > 100 µM | 0.0382 µM | 0.129 µM | 0.072 µM | 0.726 µM |
| Cc1cc(=O)oc2cc(OC(=O)Nc3ccccc3)ccc12 |  | > 100 µM |  | > 100 µM |  | 62.4 µM |  | > 100 µM |  | > 100 µM |  | > 100 µM |  | > 100 µM |  | 44.9 µM |  | > 100 µM |  | > 100 µM |
| CCN(CC)CC(O)COc1c(Br)c(Br)c(Br)c2c1OC(C)(C)C2 (stereo unspecified) | 3.85 µM | > 100 µM | 3.42 µM | 9.23 µM | 2.01 µM | 4.45 µM | 1.92 µM | 4.06 µM | 2.26 µM | 4.92 µM | 3.55 µM | 15.4 µM | 7.69 µM | 25.5 µM | 1.73 µM | 3.53 µM | 1.98 µM | 5.14 µM | 2.01 µM | 4.12 µM |
| O=Cc1ccc(-c2ccc(-c3ccc(C=O)o3)[se]2)o1 | > 100 µM | > 100 µM | > 100 µM | > 100 µM | > 100 µM | > 100 µM | 6.35 µM | > 100 µM | > 100 µM | > 100 µM | > 100 µM | > 100 µM | > 100 µM | > 100 µM | > 100 µM | > 100 µM | > 100 µM | > 100 µM | > 100 µM | > 100 µM |
| COc1cc2c3c(n(CCCN4CCCNCC4)c(=O)c2cc1OC)-c1cc2c(cc1C3=O)OCO2 | 0.282 µM | 2.3 µM | 3.07 µM | 9.45 µM | 0.571 µM | 2.1 µM | 0.138 µM | 6.29 µM | 0.267 µM | 12 µM | 3.7 µM | 17.6 µM | 0.493 µM | 6.69 µM | 0.147 µM | 0.976 µM | 2.21 µM | 10.8 µM | 0.521 µM | 7.12 µM |
| CS(=N)(=O)CCC(N)P(=O)(O)O (stereo unspecified) |  | > 100 µM |  | > 100 µM |  | > 100 µM |  | > 100 µM |  | > 100 µM |  | > 100 µM |  | > 100 µM |  | > 100 µM |  | > 100 µM |  | > 100 µM |
| NC(=N\N=C/c1ccc(Cl)cc1Cl)/C(N)=N\N=C/c1ccc(Cl)cc1Cl | 1.19 µM | > 100 µM | > 94.7 µM | > 100 µM | > 100 µM | > 100 µM | > 73.8 µM | > 100 µM | > 54.3 µM | > 100 µM | > 57.1 µM | > 93.6 µM | 38.7 µM | > 100 µM | > 100 µM | > 100 µM | 46.2 µM | > 100 µM | > 83.1 µM | > 100 µM |
| COc1cc(/C=C/C(=O)c2c(C)nc3ccccc3c2C)ccc1OCCCCOc1cc2c(cc1OC)C(=O)N1CCC[C@H]1C=N2 | 0.432 µM | 6.49 µM | 0.519 µM | 1.16 µM | 0.209 µM | 0.585 µM | 0.238 µM | 0.975 µM | 0.203 µM | 0.538 µM | 0.414 µM | 0.978 µM | 3.06 µM | 40.4 µM | 0.196 µM | 0.514 µM | 0.74 µM | 2.14 µM | 1.16 µM | > 100 µM |
| CCCCN(CC)CCCCCCCCCCN1CCCc2cc(OC)ccc21 | 1.73 µM | 3.63 µM | 2.32 µM | 6.38 µM | 2.15 µM | 4.79 µM | 1.8 µM | 3.59 µM | 2.23 µM | 6.24 µM | 1.95 µM | 4.15 µM | 2.07 µM | 6.15 µM | 2.07 µM | 5 µM | 1.6 µM | 3.25 µM | 2.11 µM | 4.99 µM |
| CC(C)OCc1cc(CN2CCN(c3cccc(Cl)c3)CC2)c(O)c2ncccc12 | 0.425 µM | 3.79 µM | 0.92 µM | 11.3 µM | 0.558 µM | 13.3 µM | 0.377 µM | 11.5 µM | 0.852 µM | 17.4 µM | 1.74 µM | 7.07 µM | 0.203 µM | 10.6 µM | 0.388 µM | 2.84 µM | 5.94 µM | 19.2 µM |  |  |
| COc1ccc(/C=C/C(=O)c2ccc(Nc3nc(Nc4ccc(F)cc4)nc(Nc4ccc(Cl)cc4)n3)cc2)cc1 | 39.9 µM | > 100 µM | > 100 µM | > 100 µM | 6.91 µM | > 100 µM | 0.292 µM | 31.7 µM | > 100 µM | > 100 µM | 41.3 µM | > 100 µM | > 100 µM | > 100 µM | 84 µM | > 100 µM | 24.2 µM | > 100 µM | > 100 µM | > 100 µM |
